Data from article PMC5218480 (PLoS ONE, 2017).

Tested on: MV-4-11 cells
Experiment: Gene expression microarray analysis (Affymetrix PrimeView) and GSEA
Type: cell-based, human
Design: RFU PODN (11730768_x_at) / Fold change /veh PODN (11730768_x_at) / RFU LINC00158 (11744669_a_at) / Fold change /veh LINC00158 (11744669_a_at) / RFU DUSP10 (11751237_a_at) / Fold change /veh DUSP10 (11751237_a_at) / RFU ID3 (11757404_x_at) / Fold change /veh ID3 (11757404_x_at) / RFU PLEKHG5 (11737974_s_at) / Fold change /veh PLEKHG5 (11737974_s_at) / RFU LRRC4B (11730491_at) / Fold change /veh LRRC4B (11730491_at) / RFU GIMAP4 (11747438_a_at) / Fold change /veh GIMAP4 (11747438_a_at) / RFU KRT8 (11758183_x_at) / Fold change /veh KRT8 (11758183_x_at) / RFU CNN1 (11734310_a_at) / Fold change /veh CNN1 (11734310_a_at) / RFU VPS37D (11726825_at) / Fold change /veh VPS37D (11726825_at) / RFU C10orf10 (11716522_x_at) / Fold change /veh C10orf10 (11716522_x_at) / RFU KIR2DL2 /// KIR2DL4 /// KIR2DL5A /// KIR2DL5B /// KIR2DS1 /// KIR2DS2 /// KIR2DS3 /// KIR2DS4 /// KIR3DL3 /// KIR3DL3 /// KIR3DS1 (11738374_at) / Fold change /veh KIR2DL2 /// KIR2DL4 /// KIR2DL5A /// KIR2DL5B /// KIR2DS1 /// KIR2DS2 /// KIR2DS3 /// KIR2DS4 /// KIR3DL3 /// KIR3DL3 /// KIR3DS1 (11738374_at) / RFU C1QL1 (11718748_at) / Fold change /veh C1QL1 (11718748_at) / RFU TMPRSS4 (11747572_a_at) / Fold change /veh TMPRSS4 (11747572_a_at) / RFU HAMP (11756126_x_at) / Fold change /veh HAMP (11756126_x_at) / RFU RNFT2 (11725882_a_at) / Fold change /veh RNFT2 (11725882_a_at) / RFU NR4A2 (11747474_a_at) / Fold change /veh NR4A2 (11747474_a_at) / RFU ABCC12 (11746883_a_at) / Fold change /veh ABCC12 (11746883_a_at) / RFU TMEM136 (11760407_x_at) / Fold change /veh TMEM136 (11760407_x_at) / RFU CLDN22 /// WWC2 (11732394_at) / Fold change /veh CLDN22 /// WWC2 (11732394_at) / RFU HLA-DPB1 (11760878_x_at) / Fold change /veh HLA-DPB1 (11760878_x_at) / RFU SPINT1 (11716480_a_at) / Fold change /veh SPINT1 (11716480_a_at) / RFU GAP43 (11754022_s_at) / Fold change /veh GAP43 (11754022_s_at) / RFU A4GNT (11735810_at) / Fold change /veh A4GNT (11735810_at) / RFU PRB3 (11715151_x_at) / Fold change /veh PRB3 (11715151_x_at) / RFU TUBB4B (11761932_at) / Fold change /veh TUBB4B (11761932_at) / RFU CAPN14 (11732068_a_at) / Fold change /veh CAPN14 (11732068_a_at) / RFU TMCC2 (11721928_a_at) / Fold change /veh TMCC2 (11721928_a_at) / RFU IRGQ (11745062_a_at) / Fold change /veh IRGQ (11745062_a_at) / RFU FAM174B (11720279_a_at) / Fold change /veh FAM174B (11720279_a_at) / RFU TMPRSS4 (11748680_a_at) / Fold change /veh TMPRSS4 (11748680_a_at) / RFU FAM212B (11763350_a_at) / Fold change /veh FAM212B (11763350_a_at) / RFU PLEKHG5 (11743358_a_at) / Fold change /veh PLEKHG5 (11743358_a_at) / RFU ZSCAN30 (11745921_a_at) / Fold change /veh ZSCAN30 (11745921_a_at) / RFU CMKLR1 (11741424_a_at) / Fold change /veh CMKLR1 (11741424_a_at) / RFU LOC101060620 /// MAPK8IP1 (11723275_at) / Fold change /veh LOC101060620 /// MAPK8IP1 (11723275_at) / RFU SPTSSB (11747773_x_at) / Fold change /veh SPTSSB (11747773_x_at) / RFU PRSS12 (11739890_at) / Fold change /veh PRSS12 (11739890_at) / RFU BIN1 (11741810_x_at) / Fold change /veh BIN1 (11741810_x_at) / RFU WNT11 (11732464_a_at) / Fold change /veh WNT11 (11732464_a_at) / RFU C10orf10 (11716521_a_at) / Fold change /veh C10orf10 (11716521_a_at) / RFU C5orf56 (11738089_at) / Fold change /veh C5orf56 (11738089_at) / RFU CYB561 (11721691_x_at) / Fold change /veh CYB561 (11721691_x_at) / RFU ANKRD19P (11752326_a_at) / Fold change /veh ANKRD19P (11752326_a_at) / RFU OR2T12 /// OR2T33 /// OR2T8 (11738714_s_at) / Fold change /veh OR2T12 /// OR2T33 /// OR2T8 (11738714_s_at) / RFU VCAN (11748164_a_at) / Fold change /veh VCAN (11748164_a_at) / RFU JSRP1 (11732532_at) / Fold change /veh JSRP1 (11732532_at) / RFU KRTAP10-11 (11738290_x_at) / Fold change /veh KRTAP10-11 (11738290_x_at) / RFU MYO3A (11730013_a_at) / Fold change /veh MYO3A (11730013_a_at) / RFU EBF3 (11725865_a_at) / Fold change /veh EBF3 (11725865_a_at) / RFU CAMK2N1 (11719241_x_at) / Fold change /veh CAMK2N1 (11719241_x_at) / RFU C5orf56 (11738088_a_at) / Fold change /veh C5orf56 (11738088_a_at) / RFU OLFML3 (11715873_a_at) / Fold change /veh OLFML3 (11715873_a_at) / RFU LOC100653217 /// NTM (11731650_a_at) / Fold change /veh LOC100653217 /// NTM (11731650_a_at) / RFU MAPK11 (11762145_a_at) / Fold change /veh MAPK11 (11762145_a_at) / RFU FIZ1 (11724087_x_at) / Fold change /veh FIZ1 (11724087_x_at) / RFU OASL (11726364_x_at) / Fold change /veh OASL (11726364_x_at) / RFU SOX15 (11748057_x_at) / Fold change /veh SOX15 (11748057_x_at) / RFU CD79A (11719716_a_at) / Fold change /veh CD79A (11719716_a_at) / RFU HIST1H1D (11736915_at) / Fold change /veh HIST1H1D (11736915_at) / RFU CASKIN2 (11723855_a_at) / Fold change /veh CASKIN2 (11723855_a_at) / RFU LOC730098 (11760151_x_at) / Fold change /veh LOC730098 (11760151_x_at) / RFU OR4N2 (11742367_at) / Fold change /veh OR4N2 (11742367_at) / RFU PRRT2 (11749266_a_at) / Fold change /veh PRRT2 (11749266_a_at) / RFU SNX32 (11753110_a_at) / Fold change /veh SNX32 (11753110_a_at) / RFU CDHR5 (11726645_a_at) / Fold change /veh CDHR5 (11726645_a_at) / RFU RCAN1 (11760418_a_at) / Fold change /veh RCAN1 (11760418_a_at) / RFU FAM167A (11723789_a_at) / Fold change /veh FAM167A (11723789_a_at) / RFU FAM26E (11764081_at) / Fold change /veh FAM26E (11764081_at) / RFU ISYNA1 (11749810_s_at) / Fold change /veh ISYNA1 (11749810_s_at) / RFU ACY1 (11761880_at) / Fold change /veh ACY1 (11761880_at) / RFU 11764098_at / Fold change /veh 11764098_at / RFU SAMD14 (11745864_x_at) / Fold change /veh SAMD14 (11745864_x_at) / RFU NPB (11741838_a_at) / Fold change /veh NPB (11741838_a_at) / RFU TMPRSS6 (11731388_a_at) / Fold change /veh TMPRSS6 (11731388_a_at) / RFU KRTAP10-2 (11738614_at) / Fold change /veh KRTAP10-2 (11738614_at) / RFU ARHGAP8 /// PRR5-ARHGAP8 (11727945_x_at) / Fold change /veh ARHGAP8 /// PRR5-ARHGAP8 (11727945_x_at) / RFU KRTAP5-7 /// NADSYN1 (11734609_at) / Fold change /veh KRTAP5-7 /// NADSYN1 (11734609_at) / RFU RASL12 (11751679_a_at) / Fold change /veh RASL12 (11751679_a_at) / RFU CDKN2B (11736163_a_at) / Fold change /veh CDKN2B (11736163_a_at) / RFU PRF1 (11729649_at) / Fold change /veh PRF1 (11729649_at) / RFU, ZNF638 /// ZNF638-IT1 / Fold change vs veh, ZNF638 /// ZNF638-IT1 / RFU, PANK3 / Fold change vs veh, PANK3 / RFU, SH3YL1 / Fold change vs veh, SH3YL1 / RFU, ZEB2 / Fold change vs veh, ZEB2 / RFU, NRIP1 / Fold change vs veh, NRIP1 / RFU, PTTG1IP / Fold change vs veh, PTTG1IP / RFU, CAPN2 / Fold change vs veh, CAPN2 / RFU, MED14 / Fold change vs veh, MED14 / RFU, SNORA58 / Fold change vs veh, SNORA58 / RFU, C1orf63 / Fold change vs veh, C1orf63 / RFU, LRRFIP1 / Fold change vs veh, LRRFIP1 / RFU, NDUFAF7 / Fold change vs veh, NDUFAF7 / RFU, SLC12A2 / Fold change vs veh, SLC12A2 / RFU, IBTK / Fold change vs veh, IBTK / RFU, ESF1 / Fold change vs veh, ESF1 / Fold change vs veh, TMEM50B / RFU, TAOK1 / Fold change vs veh, TAOK1 / RFU, ACBD3 / Fold change vs veh, ACBD3 / RFU, TMA16 / Fold change vs veh, TMA16 / RFU, RWDD3 / Fold change vs veh, RWDD3 / RFU, BCAT1 / Fold change vs veh, BCAT1 / RFU, EDEM3 / Fold change vs veh, EDEM3 / RFU, TMEM33 / Fold change vs veh, TMEM33 / RFU, WDR75 / Fold change vs veh, WDR75 / RFU, AHCTF1 / Fold change vs veh, AHCTF1 / RFU, TFRC / Fold change vs veh, TFRC / RFU, ZDHHC17 / Fold change vs veh, ZDHHC17 / RFU, NOM1 / Fold change vs veh, NOM1 / RFU, ARL8B / Fold change vs veh, ARL8B / RFU, ZBTB11 / Fold change vs veh, ZBTB11 / RFU, TAMM41 / Fold change vs veh, TAMM41 / RFU, KIAA1704 /// LOC100996395 / Fold change vs veh, KIAA1704 /// LOC100996395 / RFU, ING1 / Fold change vs veh, ING1 / RFU, TRMT61B / Fold change vs veh, TRMT61B / RFU, FUBP3 / Fold change vs veh, FUBP3 / RFU, TP53 / Fold change vs veh, TP53 / RFU, TNKS2 / Fold change vs veh, TNKS2 / RFU, ZFP14 / Fold change vs veh, ZFP14 / RFU, ACTR2 / Fold change vs veh, ACTR2 / RFU, PPP3R1 / Fold change vs veh, PPP3R1 / RFU, PIK3R1 / Fold change vs veh, PIK3R1 / RFU, HNRNPA1 / Fold change vs veh, HNRNPA1 / RFU, RNF170 / Fold change vs veh, RNF170 / RFU, ZNF28 / Fold change vs veh, ZNF28 / RFU, RNGTT / Fold change vs veh, RNGTT / RFU, OGT / Fold change vs veh, OGT / RFU, BRD1 / Fold change vs veh, BRD1 / RFU, MARS / Fold change vs veh, MARS / RFU, ZNF655 / Fold change vs veh, ZNF655 / RFU, FAHD1 / Fold change vs veh, FAHD1 / RFU, BDP1 / Fold change vs veh, BDP1 / RFU, LRRCC1 / Fold change vs veh, LRRCC1 / RFU, ARID1A / Fold change vs veh, ARID1A / RFU, ZNF146 / Fold change vs veh, ZNF146 / RFU, ZNF330 / Fold change vs veh, ZNF330 / RFU, GPN3 / Fold change vs veh, GPN3 / RFU, C9orf123 / Fold change vs veh, C9orf123 / RFU, N4BP2L2 / Fold change vs veh, N4BP2L2 / RFU, ARFIP1 / Fold change vs veh, ARFIP1 / RFU, FAM179B / Fold change vs veh, FAM179B / RFU, BCL10 / Fold change vs veh, BCL10 / RFU, UHRF1BP1L / Fold change vs veh, UHRF1BP1L / RFU, BET1 / Fold change vs veh, BET1 / RFU, CNOT2 / Fold change vs veh, CNOT2 / RFU, ZNF268 / Fold change vs veh, ZNF268 / Fold change vs veh, ZNF507 / RFU, DGCR2 / Fold change vs veh, DGCR2 / RFU, WDSUB1 / Fold change vs veh, WDSUB1 / Fold change vs veh, HSP90B1 /// MIR3652 / RFU, ADSS / Fold change vs veh, ADSS / RFU, GK / Fold change vs veh, GK / RFU, ZNF148 / Fold change vs veh, ZNF148 / RFU, TAF9 / Fold change vs veh, TAF9 / RFU, SLC1A5 / Fold change vs veh, SLC1A5 / RFU, SLMO2 / Fold change vs veh, SLMO2 / RFU, ABCC4 / Fold change vs veh, ABCC4 / RFU, LOC101060439 /// RAP1B / Fold change vs veh, LOC101060439 /// RAP1B / RFU, RFX7 / Fold change vs veh, RFX7 / RFU, GTPBP10 / Fold change vs veh, GTPBP10 / RFU, CNEP1R1 / Fold change vs veh, CNEP1R1 / RFU, BIVM-ERCC5 /// ERCC5 / Fold change vs veh, BIVM-ERCC5 /// ERCC5 / RFU, ILF3 / Fold change vs veh, ILF3 / RFU 11762660_at / Fold change /veh 11762660_at / RFU VCAN (11757783_s_at) / Fold change /veh VCAN (11757783_s_at) / RFU DDX43 (11728927_at) / Fold change /veh DDX43 (11728927_at) / RFU KRT8 (11758188_x_at) / Fold change /veh KRT8 (11758188_x_at) / RFU NKD1 (11759106_at) / Fold change /veh NKD1 (11759106_at) / RFU SRD5A1 (11742802_a_at) / Fold change /veh SRD5A1 (11742802_a_at) / RFU TPSAB1 /// TPSB2 (11721975_s_at) / Fold change /veh TPSAB1 /// TPSB2 (11721975_s_at) / RFU GSTM3 (11746129_a_at) / Fold change /veh GSTM3 (11746129_a_at) / RFU IL23R (11737362_x_at) / Fold change /veh IL23R (11737362_x_at) / RFU TMEM51 (11727254_a_at) / Fold change /veh TMEM51 (11727254_a_at) / RFU PIWIL2 (11732686_x_at) / Fold change /veh PIWIL2 (11732686_x_at) / RFU ORM1 (11744905_x_at) / Fold change /veh ORM1 (11744905_x_at) / RFU CCDC152 (11743942_at) / Fold change /veh CCDC152 (11743942_at) / RFU ECM1 (11717891_a_at) / Fold change /veh ECM1 (11717891_a_at) / RFU IL23R (11748794_a_at) / Fold change /veh IL23R (11748794_a_at) / RFU TNFAIP8L3 (11732012_x_at) / Fold change /veh TNFAIP8L3 (11732012_x_at) / RFU MBOAT4 (11741988_at) / Fold change /veh MBOAT4 (11741988_at) / RFU 11764193_at / Fold change /veh 11764193_at / RFU TMEM53 (11763286_at) / Fold change /veh TMEM53 (11763286_at) / RFU MAGEB2 (11727129_at) / Fold change /veh MAGEB2 (11727129_at) / RFU TMEM200A (11744735_a_at) / Fold change /veh TMEM200A (11744735_a_at) / RFU CCDC152 (11751479_a_at) / Fold change /veh CCDC152 (11751479_a_at) / RFU FAM211A (11726209_a_at) / Fold change /veh FAM211A (11726209_a_at) / RFU RGS16 (11746705_a_at) / Fold change /veh RGS16 (11746705_a_at) / RFU VCAN (11755009_s_at) / Fold change /veh VCAN (11755009_s_at) / RFU RHOB (11743442_s_at) / Fold change /veh RHOB (11743442_s_at) / RFU RGS16 (11720943_a_at) / Fold change /veh RGS16 (11720943_a_at) / RFU RGS16 (11720944_at) / Fold change /veh RGS16 (11720944_at) / RFU, VPS4B / Fold change vs veh, VPS4B / RFU, CREB1 / Fold change vs veh, CREB1 / RFU, DNAJC13 / Fold change vs veh, DNAJC13 / RFU, GNAQ / Fold change vs veh, GNAQ / RFU, CDK5R1 / Fold change vs veh, CDK5R1 / RFU, ZRANB3 / Fold change vs veh, ZRANB3 / RFU, CUL4A / Fold change vs veh, CUL4A / RFU, CCNY / Fold change vs veh, CCNY / RFU, UFL1 / Fold change vs veh, UFL1 / RFU, COG3 / Fold change vs veh, COG3 / RFU, DIAPH2 / Fold change vs veh, DIAPH2 / RFU, SKA2 / Fold change vs veh, SKA2 / RFU, AFF3 / Fold change vs veh, AFF3 / RFU, LMF1 / Fold change vs veh, LMF1 / RFU, IPO11 / Fold change vs veh, IPO11 / RFU, DFFB / Fold change vs veh, DFFB / RFU, FOXP1 / Fold change vs veh, FOXP1 / RFU, CARD8 / Fold change vs veh, CARD8 / RFU, STRN3 / Fold change vs veh, STRN3 / RFU, ADK / Fold change vs veh, ADK / RFU, RASSF2 / Fold change vs veh, RASSF2 / RFU, WIPF1 / Fold change vs veh, WIPF1 / RFU, LARP1B / Fold change vs veh, LARP1B / RFU, RASA1 / Fold change vs veh, RASA1 / RFU, RB1 / Fold change vs veh, RB1 / RFU, PPFIA1 / Fold change vs veh, PPFIA1 / RFU, MAT2A / Fold change vs veh, MAT2A / RFU, CCT5 / Fold change vs veh, CCT5 / RFU, WDR92 / Fold change vs veh, WDR92 / RFU, CUX1 / Fold change vs veh, CUX1 / RFU, TTC7A / Fold change vs veh, TTC7A / RFU, TMEM135 / Fold change vs veh, TMEM135 / RFU, DEPTOR / Fold change vs veh, DEPTOR / RFU, CPM / Fold change vs veh, CPM / RFU, DNAJB6 / Fold change vs veh, DNAJB6 / RFU, CACNA2D3 / Fold change vs veh, CACNA2D3 / RFU, DTX4 / Fold change vs veh, DTX4 / RFU, TFCP2 / Fold change vs veh, TFCP2 / RFU, GMCL1 /// GMCL1P1 / Fold change vs veh, GMCL1 /// GMCL1P1 / RFU, AEBP2 / Fold change vs veh, AEBP2 / RFU, SNHG1 /// SNORD22 /// SNORD25 /// SNORD26 /// SNORD27 /// SNORD28 /// SNORD29 /// SNORD31 / Fold change vs veh, SNHG1 /// SNORD22 /// SNORD25 /// SNORD26 /// SNORD27 /// SNORD28 /// SNORD29 /// SNORD31 / Fold change (Aza/veh), C12orf56 (ProbeSet 11735607_a_at) / Fold change (ACY-1035/veh), C12orf56 (ProbeSet 11735607_a_at) / Fold change (Aza/veh), FGFR1OP (ProbeSet 11751329_s_at) / Fold change (ACY-1035/veh), FGFR1OP (ProbeSet 11751329_s_at) / Fold change (Aza/veh), VPS36 (ProbeSet 11739960_a_at) / Fold change (ACY-1035/veh), VPS36 (ProbeSet 11739960_a_at) / RFU SYPL1 (11715823_x_at) / Fold change /veh SYPL1 (11715823_x_at) / RFU IGFBP7 (11715501_s_at) / Fold change /veh IGFBP7 (11715501_s_at) / RFU REEP3 (11722064_at) / Fold change /veh REEP3 (11722064_at) / RFU IGLL1 (11728026_x_at) / Fold change /veh IGLL1 (11728026_x_at): dose or concentration left out as unconfirmed
Conditions: ProbeSet 11727545_at; LIST B

With `Nc1ccc(-c2cccs2)cc1NC(=O)c1ccc2c(c1)cc(C1CC1)n2CCN1CCOCC1` [ACY-1035] the “RFU, PANK3” value was 81.04 RFU.
